Drawing on patent US20250333397A1 (REMIX THERAPEUTICS INC., priority 2021, published 2025), this text covers AC50 and IC50 for six molecules.

What all share (type): cell-based, human
One experiment has as its system HTT mRNA. The experiment is described as follows: RT-qPCR splicing assay, HTT canonical (CJ) and alternative (AJ) junction mRNA. The conditions noted are these: Homo sapiens; for AC50: read-out: HTT AJ (AC50, increase in AJ mRNA). In outline:
(§1)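 A673 (DMEM/10% FBS) or K562 (IMDM/10% FBS) cells treated 24 h at 37 °C with 11-point 3-fold dilutions, top 10 uM final, DMSO ≤0.25%. Lysates read by one-step RT-qPCR for CJ and AJ isoforms, normalized to GAPDH, GUSB or PPIA. ΔΔCt vs DMSO gives RQ via 2^(-ΔΔCt).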
On the technique in general: Real-time PCR tracks product formation cycle by cycle.

Another experiment has as its system SMN2 mRNA. Description: RT-qPCR splicing assay panel, SMN2 canonical junction (CJ) mRNA. The settings on record: Homo sapiens, canonical junction (CJ) mRNA, RT-qPCR panel, Table 4A; read-out: SMN2, decrease in CJ mRNA levels, IC50. The procedure, abridged: as §1
The next experiment relates to Target C mRNA. Description: RT-qPCR splicing assay panel, Target C canonical junction (CJ) mRNA. The settings on record: Homo sapiens, canonical junction (CJ) mRNA, RT-qPCR panel, Table 4A; read-out: Target C, decrease in CJ mRNA levels, IC50. The procedure, abridged: as §1
For the next experiment, the system named is MYB mRNA. Description: RT-qPCR splicing assay, MYB canonical (CJ) and alternative (AJ) junction mRNA. The settings on record: Homo sapiens; for AC50: read-out: MYB AJ (AC50, increase in AJ mRNA). In outline:
as §1

Setting [1] is: 24 h, Table 3A, A673 or K562 cells, 24 h treatment.
Where [2] appears, read: 24 h, Table 3A, A673 or K562 cells, 24 h treatment, read-out: HTT CJ (IC50, decrease in CJ mRNA).
The mark [3] stands for this setting: canonical junction (CJ) mRNA, RT-qPCR panel, Table 4A, read-out: HTT, decrease in CJ mRNA levels, IC50.
Setting [4] is: 24 h, Table 3A, A673 or K562 cells, 24 h treatment, read-out: MYB CJ (IC50, decrease in CJ mRNA).
[5] abbreviates: canonical junction (CJ) mRNA, RT-qPCR panel, Table 4A, read-out: MYB, decrease in CJ mRNA levels, IC50.

As usually defined, the AC50 is the midpoint of the concentration-response curve, whichever way the signal moves. A word on the pIC50: it is −log10 of the IC50, conventionally taken in molar units.

pIC50: −log10 of the molar value. Like-named read-outs stand apart in the source and are kept apart here.

As for `CNc1cc(-c2ccc(-c3ccc(N4CC[C@H](NC(C)(C)C)C4)nn3)c(O)c2)ncn1` [Compound 436, 2-{6-[(3S)-3-(tert-butylamino)pyrrolidin-1-yl]pyridazin-3-yl}-5-[6-(methylamino)pyrimidin-4-yl]phenol], the concentration at half-maximal activity (AC50) with HTT mRNA (setting [1]) was less than 0.1 µM; in the experiment on MYB mRNA (setting [1]), 0.1 to 1 µM. The negative logarithm of the IC50 (pIC50) is more than 7.00 in the experiment with HTT mRNA (setting [2]); more than 7.00 with HTT mRNA (setting [3]); more than 7.00 in the experiment with SMN2 mRNA; more than 7.00 in the experiment with Target C mRNA; 6.00 to 7.00 in the experiment on MYB mRNA (setting [4]); 6.00 to 7.00 in the experiment with MYB mRNA (setting [5]).

`Cc1ncc(-c2cc(O)c(-c3ccc(N4CC[C@@H](N(C)C5CCC5)C4)nn3)cc2F)s1` [Compound 269]: the figures for the AC50 in the experiment on HTT mRNA (setting [1]) and with MYB mRNA (setting [1]) were less than 0.1 µM and 0.1 to 1 µM, respectively. The pIC50 in the experiment on HTT mRNA (setting [2]), in the experiment with HTT mRNA (setting [3]), in the experiment with SMN2 mRNA, in the experiment on Target C mRNA, with MYB mRNA (setting [4]) and with MYB mRNA (setting [5]) was more than 7.00 throughout.

As for `CN(C1CCC1)[C@H]1CCN(c2ccc(-c3ccc(-c4cn[nH]c4)cc3O)nn2)C1` [Compound 294, 2-{6-[(3S)-3-[cyclobutyl(methyl)amino]pyrrolidin-1-yl]pyridazin-3-yl}-5-(1H-pyrazol-4-yl)phenol], the AC50 in the experiment on HTT mRNA (setting [1]) and in the experiment with MYB mRNA (setting [1]) was 0.1 to 1 µM throughout. The pIC50 was more than 7.00 with HTT mRNA (setting [2]); more than 7.00 in the experiment with HTT mRNA (setting [3]); more than 7.00 in the experiment with SMN2 mRNA; 6.00 to 7.00 in the experiment with Target C mRNA; 6.00 to 7.00 in the experiment with MYB mRNA (setting [4]); 6.00 to 7.00 with MYB mRNA (setting [5]).

Take `CC(C)(C)N[C@H]1CCN(c2ccc(-c3ccc(-c4cn[nH]c4)cc3O)nn2)C1` [Compound 101, 2-{6-[(3S)-3-(tert-butylamino)pyrrolidin-1-yl]pyridazin-3-yl}-5-(1H-pyrazol-4-yl)phenol]: the AC50 in the experiment with HTT mRNA (setting [1]) and in the experiment with MYB mRNA (setting [1]) was less than 0.1 µM in each case. Further, the negative-log IC50 (pIC50) in the experiment on HTT mRNA (setting [2]), in the experiment on HTT mRNA (setting [3]), in the experiment with SMN2 mRNA, with Target C mRNA, in the experiment on MYB mRNA (setting [4]) and in the experiment with MYB mRNA (setting [5]) was more than 7.00 in each case.

Take `COc1cc(-c2ccc(-c3ccc(N4CCC(N[C@H]5C[C@@H](O)C5)C4)nn3)c(O)c2)cnn1` (stereo partly drawn) [Compound 403, 5-(6-methoxypyridazin-4-yl)-2-[6-(3-{[(1s,3s)-3-hydroxycyclobutyl]amino}pyrrolidin-1-yl)pyridazin-3-yl]phenol]: the results for the AC50 in the experiment with HTT mRNA (setting [1]) and in the experiment with MYB mRNA (setting [1]) were 0.1 to 1 µM and 1 to 10 µM, respectively. The pIC50 with HTT mRNA (setting [2]) is more than 7.00; in the experiment with HTT mRNA (setting [3]), more than 7.00; in the experiment on SMN2 mRNA, more than 7.00; with Target C mRNA it was 6.00 to 7.00; in the experiment with MYB mRNA (setting [4]), 6.00 to 7.00; with MYB mRNA (setting [5]), 6.00 to 7.00.

With `COc1cc(-c2ccc(-c3ccc(N4C[C@@H](F)[C@@H](NC(C)(C)C)C4)nn3)c(O)c2)cnn1` [Compound 218, 2-{6-[(3S,4R)-3-(tert-butylamino)-4-fluoropyrrolidin-1-yl]pyridazin-3-yl}-5-(6-methoxypyridazin-4-yl)phenol], the AC50 in the experiment with HTT mRNA (setting [1]) and with MYB mRNA (setting [1]) was less than 0.1 µM throughout. The pIC50 in the experiment with HTT mRNA (setting [2]), in the experiment with HTT mRNA (setting [3]), in the experiment with SMN2 mRNA, in the experiment on Target C mRNA, in the experiment with MYB mRNA (setting [4]) and in the experiment on MYB mRNA (setting [5]) was more than 7.00 each time.
